According to US8232288B2, “Substituted benzimidazoles, benzothiazoles and benzoxazoles” (Gruenenthal GmbH, priority 2009, dated 2012):

Tests used:
[1] = molecular target: T1, human B1R receptor (hB1R) (Homo sapiens, UniProt P46663); test: Functional investigation on the bradykinin receptor 1 (B1R), FLIPR Ca2+ assay, hB1R cells; format: cell-based
T1 construct: expressed in transfected cells; host or cells: CHO K1 cells
T1 sequence (P46663 1-353): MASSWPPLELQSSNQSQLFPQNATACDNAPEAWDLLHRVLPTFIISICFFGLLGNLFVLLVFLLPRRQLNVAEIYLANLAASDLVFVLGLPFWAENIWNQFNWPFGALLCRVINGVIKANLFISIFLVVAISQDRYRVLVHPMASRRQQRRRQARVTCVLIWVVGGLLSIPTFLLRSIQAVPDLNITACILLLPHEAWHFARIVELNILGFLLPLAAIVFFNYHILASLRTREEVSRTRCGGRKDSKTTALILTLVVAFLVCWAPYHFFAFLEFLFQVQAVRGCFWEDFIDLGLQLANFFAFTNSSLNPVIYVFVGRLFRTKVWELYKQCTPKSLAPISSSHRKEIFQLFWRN
Procedure, shortened: (§1)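 Stably transfected CHO K1 cells expressing human or rat B1R were loaded with Fluo-4, and Ca2+ fluorescence was read on a FLIPR. Compound (10 μM) was added first to measure activation. After 10–20 min, agonist at EC80 was added (Lys-Des-Arg9-bradykinin for hB1R, Des-Arg9-bradykinin for rB1R) to give % inhibition. IC50 values came from concentration series.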

[2] = molecular target: T2, B1R receptor of the rat (rB1R) (Rattus norvegicus, UniProt P97583); test: Functional investigation on the bradykinin receptor 1 (B1R), FLIPR Ca2+ assay, rB1R cells; format: cell-based
T2 construct: expressed in transfected cells; host or cells: CHO K1 cells
T2 sequence (P97583 1-337): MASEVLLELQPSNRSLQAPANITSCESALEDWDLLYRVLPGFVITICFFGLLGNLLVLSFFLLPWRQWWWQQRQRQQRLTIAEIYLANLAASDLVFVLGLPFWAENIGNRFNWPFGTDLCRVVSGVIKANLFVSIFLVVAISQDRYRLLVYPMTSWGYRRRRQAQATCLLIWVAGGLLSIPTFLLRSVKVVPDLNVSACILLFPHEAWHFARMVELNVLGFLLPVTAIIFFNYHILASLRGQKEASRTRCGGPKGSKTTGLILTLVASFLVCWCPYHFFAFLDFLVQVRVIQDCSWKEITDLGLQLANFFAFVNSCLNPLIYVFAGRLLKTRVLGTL
Procedure, shortened: as §1

Structure (SMILES) | inhibition at 10 µM [1] [%] | inhibition at 10 µM [2] [%]
COc1cc(C)c(S(=O)(=O)N(C)Cc2nc3ccc(C(=O)N4CCC5(CC4)CCN(c4ccncc4)CC5)cc3[nH]2)c(C)c1 [I_22, 4-methoxy-N,2,6-trimethyl-N-[[6-(9-pyridin-4-yl-3,9-diazaspiro[5.5]undecane-3-carbonyl)-1H-benzoimidazol-2-yl]-methyl]-benzenesulfonic acid amide] | 100 | 103
O=C1c2c(Cl)cccc2CN1Cc1nc2cccc(C(=O)N3CCC4(CC3)CCN(c3ccncc3)CC4)c2[nH]1 [I_CC-12, 7-chloro-2-[[7-(3-pyridin-4-yl-3,9-diazaspiro[5.5]undecane-9-carbonyl)-1H-benzoimidazol-2-yl]-methyl]-2,3-dihydro-isoindol-1-one] | 100 | 101
COc1cc(C)c(S(=O)(=O)N(C)c2nc3cccc(C(=O)N4CCC5(CC4)CCN(c4ccncc4)CC5)c3n2C)c(C)c1 [I_CC-14, 4-methoxy-N,2,6-trimethyl-N-[1-methyl-7-(3-pyridin-4-yl-3,9-diazaspiro[5.5]undecane-9-carbonyl)-1H-benzoimidazol-2-yl]-benzenesulfonic acid amide] | 96 | 90
CN(Cc1nc2ccc(C(=O)N3CCC4(CC3)CCN(c3ccncc3)CC4)cc2[nH]1)S(=O)(=O)c1cccc2ccccc12 [I_25, N-methyl-N-[[6-(9-pyridin-4-yl-3,9-diazaspiro[5.5]undecane-3-carbonyl)-1H-benzoimidazol-2-yl]-methyl]-naphthalene-1-sulfonic acid amide] | 95 | 96
COc1cc(C)c(S(=O)(=O)N(C)Cc2nc3cccc(CN4CCC5(CC4)CCN(c4ccncc4)CC5)c3[nH]2)c(C)c1 [I_15, 4-methoxy-N,2,6-trimethyl-N-[[7-[(9-pyridin-4-yl-3,9-diazaspiro[5.5]undecan-3-yl)-methyl]-1H-benzoimidazol-2-yl]-methyl]-benzenesulfonic acid amide] | 100 | 103

The next lines start with the values.

inhibition at 10 µM [1] [%] | inhibition at 10 µM [2] [%] | Structure (SMILES)
85 | 88 | COc1cc(C)c(S(=O)(=O)N(C)C(C)c2nc3cccc(C(=O)N4CCC5(CCN(C(=O)c6ccc(F)cc6F)CC5)CC4)c3[nH]2)c(C)c1 (stereo not drawn) [I_CC-53, N-[1-[7-[9-(2,4-Difluoro-benzoyl)-3,9-diazaspiro[5.5]undecane-3-carbonyl]-1H-benzoimidazol-2-yl]-ethyl]-4-methoxy-N,2,6-trimethyl-benzenesulfonic acid amide]
76 | 90 | COc1cc(C)c(S(=O)(=O)N(C)C(C)c2nc3cccc(C(=O)N4CCC5(CCN(Cc6c(C)noc6C)CC5)CC4)c3[nH]2)c(C)c1 (stereo not drawn) [I_CC-42, N-[1-[7-[9-[(3,5-Dimethyl-isoxazol-4-yl)-methyl]-3,9-diazaspiro[5.5]undecane-3-carbonyl]-1H-benzoimidazol-2-yl]-ethyl]-4-methoxy-N,2,6-trimethyl-benzenesulfonic acid amide]
58 | 90 | COc1cc(C)c(S(=O)(=O)N(C)C(C)c2nc3cccc(C(=O)N4CCC5(CCN(C(=O)c6cnccn6)CC5)CC4)c3[nH]2)c(C)c1 (stereo not drawn) [I_CC-47, 4-Methoxy-N,2,6-trimethyl-N-[1-[7-[9-(pyrazine-2-carbonyl)-3,9-diazaspiro[5.5]undecane-3-carbonyl]-1H-benzoimidazol-2-yl]-ethyl]-benzenesulfonic acid amide]
61 | 89 | COc1cc(C)c(S(=O)(=O)N(C)C(C)c2nc3cccc(C(=O)N4CCC5(CCN(C(=O)c6cccnc6SC)CC5)CC4)c3[nH]2)c(C)c1 (stereo not drawn) [I_CC-48, 4-Methoxy-N,2,6-trimethyl-N-[1-[7-[9-(2-methylsulfanyl-pyridine-3-carbonyl)-3,9-diazaspiro[5.5]undecane-3-carbonyl]-1H-benzoimidazol-2-yl]-ethyl]-benzenesulfonic acid amide]
